Laboratory results as given in patent US9060997B2, “Antifolate compounds for the treatment of melanoma” (UNIVERSIDAD DE MURCIA, priority 2007, dated 2015).

How the values were obtained:
[1] = test system: B16 melanoma cells; assay: Metastasis model, B16 cells injected into tail vein; format: in vivo, mouse; settings: TMECG 20 mg/Kg/d plus Dipyridamol 10 mg/Kg/d intraperitoneal, 30 days, female mice
Experimental: B16 melanoma cells were injected into the tail vein, allowing microtumours to develop (1 week), then, the animal were treated for 21 days with […]) plus Dipyridamol (10 mg/Kg/d) by intraperitoneal injection. The animals were sacrifice and lungs and liver analyzed for tumor growth. We have now increased the number of treated and control animals (treated 21 female mice compared with 21 control (untreated) females) and the time of treatment (30 days). […] 31).

[2] = test system: MS, MAT1A, MAT2A, AHYC and DNMT1 mRNA; assay: Methionine cycle and methylase gene expression in SkMel-28 (real-time PCR); format: cell-based, human
Source text: (§1) Histograms compare the estimated relative levels of the mRNA with respect to that of β-actin. Values represent the number of copies of mRNA per each 1×10^6 copies of β-actin.
Primers were designer using Primer Express version 2.0 software (Applied Biosystems, Foster City, Calif.) and synthesized by Invitrogen. The sequence of the primers are as follow: MS (forward: 5′-[…]-[…]-3′; […]; MAT1A (forward: 5′-[…]-[…]; […]; The primers designed to amplify FRα cDNA were: FR1 (forward: 5′-[…]-[…]-3′); […]; cDNA samples (1 μL) were used for real-time PCR in a total volume of 20 μL using SYBR Green Reagent (Applied Biosystems) and specific primers on a 7500 Real Time PCR System of Applied Biosystems. The PCR amplification cycles included denaturation 95° C., 15 min; to activate HotStar Taq DNA polymerase and to minimize primer-dimer contribution), and amplification [over 40-50 cycles including denaturation (94° C.; 30 s), annealing (55° C.; 30 s), and extension (72° C.; 1 min)]. All PCR reactions were performed in triplicate and from at least two independent experiments. Non-RT control and negative control samples (without template) were processed in the same manner. The specificity of the amplification was verified by melting curve analysis for all samples, and occasionally by agarosa gel electrophoresis. Amplification of target gene sequences were compared against serial dilutions of know quantities of their purified cDNA fragments, and normalized to the abundance of the house-keeping gene β-actin.

[3] = test system: Caco-2 cells; assay: MTT cell proliferation assay, Caco-2; format: cell-based, human; settings: Homo sapiens, 144 h; Caco-2, 6 days of treatment
Experimental: (§2) Four human cancer cells lines (SkMel-28, MCF7, H1264 and Caco-2) were obtained from the American Type Tissue Culture Collection (ATCC) and were maintained in appropriate culture mediums supplemented with 10% fetal calf serum (FCS) and antibiotics, under standard tissue culture conditions (e.g. modified Eagle's medium (MEM) containing 1 mM sodium pyruvate and 10% fetal bovine serum (FES) under 5% CO2/95% air atmosphere.). Cell injury was evaluated by a colorimetric assay for mitochondrial function using the 3-(4,5-dimethylthiazolyl-2)-2,5-diphenyltetrazolium bromide (MTT) cell proliferation assay. For this assay cells were plated in a 96-well plate at a density of 1000 cells/well and grown until they reached 50-60% confluence. Human epidermal melanocytes (HeM) were supplied by Gentaur and were cultured in HAM-F10 medium supplemented with 10% FCS, antibiotics and the human melanocyte growth supplement (Gentaur).

[4] = test system: Caspase-3 mRNA; assay: Caspase-3 mRNA expression (real-time PCR); format: cell-based, human; settings: SkMel-28, 50 μM, 7 days
Experimental: as §1
cDNA samples (1 μL) were used for real-time PCR in a total volume of 20 μL using SYBR Green Reagent (Applied Biosystems) and specific primers on a 7500 Real Time PCR System of Applied Biosystems. The PCR amplification cycles included denaturation 95° C., 15 min; to activate HotStar Taq DNA polymerase and to minimize primer-dimer contribution), and amplification [over 40-50 cycles including denaturation (94° C.; 30 s), annealing (55° C.; 30 s), and extension (72° C.; 1 min)]. All PCR reactions were performed in triplicate and from at least two independent experiments. Non-RT control and negative control samples (without template) were processed in the same manner. The specificity of the amplification was verified by melting curve analysis for all samples, and occasionally by agarosa gel electrophoresis. Amplification of target gene sequences were compared against serial dilutions of know quantities of their purified cDNA fragments, and normalized to the abundance of the house-keeping gene β-actin.

[5] = test system: B16 melanoma; assay: Mouse tumor model, B16 melanoma, topical TMECG cream; format: in vivo
Experimental: Female C57/B16 mice 6-8 weeks old were obtained from the Animal Research Service (University of Murcia, Spain) and were housed in our animal facilities. All animal work was performed in accordance with the government guidelines. The B16 melanoma cell line (ATCC) was culture in RPMI 1640 medium under standard tissue culture conditions. Mice were shaved on the back using a long-hair cutter and 7.5×10^5 B16 melanoma cells resuspended in 25 μl sterile PBS were injected intradermally on the back. Animals with tumors more than 8 mm in diameter on day 8 or nonvisible tumor growth by day 12 were excluded. Groups consisting of 20 mice per group were differently treated starting at day 8 after tumor cell injection. For TMECG treatments this compound was uniformly mixed in a cosmetic base cream (Thae, Murcia, Spain). Topical treatment of TMECG was given every day at a dose of ≈1 mg/cm2 skin area. Control mice (non-TMECG treated) were topically treated with the some amount of cream alone. Tumor growth and body weight were monitored every second day. A postmortem with histological examination of the lung, liver and brain was performed in all animals. Tissues were fixed in 10% formaldehyde, dehydrated and embedded in paraffin wax. Sections (4 μm) were stained with eosin and hematoxylin. Analyses of gluconic acid content in lungs were carried out as described elsewhere (Pradeep and Kuttan, 2002).

[6] = test system: H1264 cells; assay: MTT cell proliferation assay, H1264; format: cell-based; settings: Homo sapiens, 144 h; H1264, 6 days of treatment
Experimental: as §2

[7] = SkMel-28, 50 μM, five days, versus untreated SkMel-28
[8] = treated for 21 days, post-mortem

In the case of `COc1cc(C(=O)O[C@@H]2Cc3c(O)cc(O)cc3O[C@@H]2c2ccc(O)c(O)c2)cc(OC)c1OC` [TMECG, 3-O-(3,4,5-trimethoxybenzoyl)-(−)-epicatechin], the lung metastasis [1] is reported as “reduction on lung metastasis”, the “level of MAT1A mRNA” value [2, 7] is reported as “essentially the some” and the “level of MAT2A mRNA” value [2, 7] is reported as “slightly but significant increase”. For the same compound, the “DNMT1 mRNA” value ([2]; SkMel-28, treated cells) was “recovered normal levels”, the IC50 [3] was 33 µM and the “Caspase-3 mRNA, higher than in HeM or untreated SkMel-28” value [4] was “around 30 times”. For the same compound, the tumor growth ([5]; topical, ≈1 mg/cm2 skin area every day) was “significantly reduced”, the survival time ([5]; topical, ≈1 mg/cm2 skin area every day, female C57/B16 mice) was “longer survival time” and the “liver and brain metastasis” value [5, 8] was “no metastasis in these organs was detected”. The lung metastasis [5, 8] was “drastically reduced lung metastasis” and the IC50 [6] was 18 µM.
